The C3SDB collision cross section collection
Where “and” joins values, the source holds several entries; their conditions need not be identical. Equal entries are not always repeated.

Assays:
[1] = instrument: DT, stepped-field
[2] = instrument: TW, calibrated with polyalanine
[3] = instrument: DT, single field, calibrated with Agilent tune mix (Agilent)
[4] = [M-H]-; instrument: TW; calibrated with phosphatidylcholines (ESI+) and phosphatidylethanolamines (ESI-)
[5] = instrument: DT, single field, calibrated with Agilent tune mix (Agilent); remark: listed apart in the source
[6] = [M-H]-; instrument: DT; stepped-field
[7] = instrument: TW, calibrated with phosphatidylcholines (ESI+) and phosphatidylethanolamines (ESI-)
[8] = instrument: DT, stepped-field; remark: listed apart in the source

NC(CCS)C(=O)O (racemic) [DL-Homocysteine]
collision cross section (N2) ([1]; [M+H]+): 130.78 Å²

Nc1ncnc2c1ncn2[C@@H]1O[C@H](COP(=O)(O)O)[C@@H](O)[C@H]1O [AMP]
collision cross section (N2) ([2]; [M+H]+): 167 Å²

N[C@@H](CC(=O)O)C(=O)O [Aspartic acid]
collision cross section (N2) ([2]; [M+H]+): 122 Å²

C[N+](C)(C)C[C@H](O)CC(=O)[O-] [Carnitine]
collision cross section (N2) ([2]; [M+H]+): 130 Å²

CCC(C)[C@H](NC(=O)[C@H](CC(C)C)NC(=O)[C@H](CC(=O)O)NC(=O)[C@@H](N)CCC(=O)O)C(=O)N[C@@H](C)C(=O)N[C@@H](Cc1ccc(O)cc1)C(=O)N[C@@H](CC(C)C)C(=O)N[C@@H](CCCCN)C(=O)O (stereo partly specified) [EDLIAYLK]
collision cross section (N2) ([1]; [M+2H]2+): 340.98 Å² | collision cross section (N2) ([1]; [M+H]+): 307.47 Å²

CNC[C@H](O)c1ccc(O)c(O)c1 [Epinephrine]
collision cross section (N2) ([2]; [M+H]+): 133 Å² | collision cross section (N2) ([3]; [M+H-H2O]+): 138.3 Å² | collision cross section (N2) ([3]; [M-H]-): 137.87 Å²

N[C@H]1[C@@H](OP(=O)(O)O)O[C@H](CO)[C@@H](O)[C@@H]1O [Glucosamine 1-phosphate]
collision cross section (N2) ([2]; [M+H]+): 153 Å² | collision cross section (N2) ([3]; [M+Na]+): 158.5 Å²

N[C@H]1C(O)O[C@H](CO)[C@@H](O)[C@@H]1O (stereo partly specified) [Glucosamine]
collision cross section (N2) ([2]; [M+H]+): 135 Å² | collision cross section (N2) ([3]; [M+H-H2O]+): 132.9 Å²

O=P(O)(O)OC[C@H](O)CO [Glycerol monophosphate]
collision cross section (N2) ([2]; [M+Na]+): 132 Å²

C[C@]12CCC(=O)C=C1CC[C@@H]1[C@@H]2[C@@H](O)C[C@@]2(C)[C@H]1CC[C@]2(O)C(=O)CO [Hydrocortisone]
collision cross section (N2) ([1]; [M+H]+): 189.27 Å² | collision cross section (N2) ([1]; [M+Na]+): 213.72 Å² | collision cross section (N2) ([3]; [M-H2O-H]-): 182.99 Å²

CCC(C)[C@H](N)C(=O)N[C@@H](Cc1ccccc1)C(=O)N[C@H](C(=O)N[C@@H](CCC(N)=O)C(=O)N[C@@H](CCCCN)C(=O)O)C(C)C (stereo partly specified) [IFVQK]
collision cross section (N2) ([1]; [M+2H]2+): 285.5 Å² | collision cross section (N2) ([1]; [M+H]+): 248.88 Å²

N[C@@H](CC(=O)O)C(=O)O [L-Aspartic acid]
collision cross section (N2) ([1]; [M-H]-): 120.39 Å²

CCCCCCCCCCCC(=O)O [Lauric acid]
collision cross section (N2) ([1]; [M-H]-): 154.82 Å²

NCCCC[C@H](N)C(=O)O [Lysine]
collision cross section (N2) ([2]; [M+H]+): 127 Å²

CCC(C)[C@H](NC(=O)CNC(=O)[C@H](C)NC(=O)[C@H](Cc1ccccc1)NC(=O)[C@@H](NC(=O)[C@@H](N)CCSC)C(C)CC)C(=O)N[C@@H](CCCCN)C(=O)O (stereo partly specified) [MIFAGIK]
collision cross section (N2) ([1]; [M+2H]2+): 305.66 Å² | collision cross section (N2) ([1]; [M+H]+): 275.34 Å²

CSC[C@H]1O[C@@H](n2cnc3c(N)ncnc32)[C@H](O)[C@@H]1O [Methylthioadenosine]
collision cross section (N2) ([2]; [M+H]+): 167 Å²

CCC(C)C(NC(=O)C(Cc1ccc(O)cc1)NC(=O)C1CCCN1C(=O)C(CCCN=C(N)N)NC(=O)C(CCCN=C(N)N)NC(=O)C1CCCN1C(=O)C(CCCCN)NC(=O)C(CC(N)=O)NC(=O)C(CCC(=O)O)NC(=O)C(Cc1ccc(O)cc1)NC(=O)C(CC(C)C)NC(=O)C1CCC(=O)N1)C(=O)NC(CC(C)C)C(=O)O (stereo unspecified) [Neurotensin]
collision cross section (N2) ([1]; [M+2H]2+): 434.32 Å² | collision cross section (N2) ([1]; [M+3H]3+): 525.02 Å²

NCCC[C@H](N)C(=O)O [Ornithine]
collision cross section (N2) ([2]; [M+H]+): 121 Å²

Nc1ccc(C(=O)O)cc1 [PABA]
collision cross section (N2) ([2]; [M+H]+): 131 Å²

CCCC/C=C\CCCCCCCC(=O)OC[C@H](COP(=O)(O)OC[C@@H](O)CO)OC(=O)CCCCCCCCCCCCCCCCCCCC [PG(35:1)]
collision cross section (N2) [4]: 273.2 Å² | collision cross section (N2) ([5]; [M-H]-): 272.7 Å² | collision cross section (N2) [6]: 280.1 Å²

CCCCCC/C=C\CCCCCCCC(=O)OC[C@H](COP(=O)(O)OC[C@@H](O)CO)OC(=O)CCCCCCCCCCCCCCCCCCC [PG(36:1)]
collision cross section (N2) [4]: 275.7 Å² | collision cross section (N2) ([5]; [M+H]+): 292 Å² | collision cross section (N2) ([5]; [M+NH4]+): 292.5 Å² | collision cross section (N2) ([5]; [M+Na]+): 287.5 Å² | collision cross section (N2) [6]: 282.9 Å² and 284.1 Å² | collision cross section (N2) ([7]; [M+Na]+): 287.5 Å² | collision cross section (N2) ([7]; [M-H]-): 275.7 Å²

CC(C)(CO)[C@@H](O)C(=O)NCCC(=O)O [Pantothenic acid]
collision cross section (N2) ([2]; [M+H]+): 145 Å²

Cc1ncc(CO)c(C(=O)O)c1O [Pyridoxic acid]
collision cross section (N2) ([2]; [M+H]+): 130 Å²

O=C[C@H](O)[C@H](O)[C@H](O)COP(=O)(O)O [Ribose 5-monophosphate]
collision cross section (N2) ([2]; [M+Na]+): 146 Å²

CN=C(NC)NCCC[C@H](N)C(=O)O [SDMA]
collision cross section (N2) ([2]; [M+H]+): 142 Å²

NCCS(=O)(=O)O [Taurine]
collision cross section (N2) ([2]; [M+H]+): 124 Å² | collision cross section (N2) ([3]; [M+H-H2O]+): 135.4 Å²

Cc1c[nH]c(=O)[nH]c1=O [Thymine]
collision cross section (N2) ([2]; [M+H]+): 115 Å² | collision cross section (N2) ([8]; [M+H]+): 126.14 Å² | collision cross section (N2) ([3]; [M+H]+): 121.9 Å² | collision cross section (N2) ([3]; [M-H]-): 117.39 Å²

N[C@@H](Cc1c[nH]c2ccccc12)C(=O)O [Tryptophan]
collision cross section (N2) ([2]; [M+H]+): 145 Å²

O=c1ccn([C@@H]2O[C@H](COP(=O)(O)O)[C@@H](O)[C@H]2O)c(=O)[nH]1 [UMP]
collision cross section (N2) ([2]; [M+Na]+): 168 Å²

O=c1[nH]c(=O)c2ncn([C@@H]3O[C@H](CO)[C@@H](O)[C@H]3O)c2[nH]1 [Xanthosine]
collision cross section (N2) ([2]; [M+H]+): 158 Å² | collision cross section (N2) ([8]; [M+H]+): 166.49 Å² | collision cross section (N2) ([8]; [M+Na]+): 177.45 Å² | collision cross section (N2) ([3]; [M+Na]+): 172.8 Å²

Nc1ncnc2c1ncn2[C@@H]1O[C@@H]2COP(=O)(O)O[C@H]2[C@H]1O [cAMP]
collision cross section (N2) ([2]; [M+H]+): 172 Å²

N[C@@H](CCC(=O)N[C@@H](CS)C(=O)NCC(=O)O)C(=O)O [glutathione]
collision cross section (N2) ([2]; [M+H]+): 165 Å²

OC[C@H]1O[C@@H](O[C@H]2[C@H](O)[C@@H](O)[C@H](O)O[C@@H]2CO)[C@H](O)[C@@H](O)[C@H]1O [lactose]
collision cross section (N2) ([2]; [M+Na]+): 173 Å²

OC[C@H]1O[C@H](OC[C@H]2O[C@H](O[C@]3(CO)O[C@H](CO)[C@@H](O)[C@@H]3O)[C@H](O)[C@@H](O)[C@@H]2O)[C@H](O)[C@@H](O)[C@H]1O [raffinose]
collision cross section (N2) ([2]; [M+Na]+): 210 Å²

OC[C@H]1O[C@@](CO)(O[C@H]2O[C@H](CO)[C@@H](O)[C@H](O)[C@H]2O)[C@@H](O)[C@@H]1O [sucrose]
collision cross section (N2) ([2]; [M+Na]+): 170 Å²

OC[C@H]1O[C@H](O[C@H]2O[C@H](CO)[C@@H](O)[C@H](O)[C@H]2O)[C@H](O)[C@@H](O)[C@@H]1O [trehalose]
collision cross section (N2) ([2]; [M+Na]+): 173 Å²
